Experimental findings from ChEMBL document CHEMBL1128304, “The synthesis of N-hydroxy-N'-phenyloctanediamide and its inhibitory effect on proliferation of AXC rat prostate cancer cells” (1995) are described below.

One experiment deals with HL-60. As to the kind of experiment: Percent of HL-60 cells (from human acute promyelocytic leukemia) to develop the ability to reduce nitroblue tetrazolium after administration (1 uM). Format: functional. Also on record: scale not given: the % may be the effect or the level left.
The next experiment deals with T/5. Nature of the experiment: Tested for morphological alterations in T/5 cells after administration along with DMSO (0.1%). Type of experiment: functional, cell-based. Conditions: Rattus norvegicus.
The test system of experiment [1] is Erythroleukemia cell line. Nature of the experiment: Percent of murine erythroleukemia cells that became benzidine reactive after administration (2.5 uM). Format: functional, Mus musculus.

Consider `O=C(CCCCCCC(=O)Nc1ccccc1)NO` [VORINOSTAT], for which the Activity in the experiment on HL-60 is 21%; with T/5, “No morphological alterations observed”; in experiment [1], 70%.
